Laboratory results from patent US6924268B2, “Method for inactivating gonadotrophs” (Colorado State University Research Foundation, priority 1989, dated 2005).

Experiments:
ovine pituitary cells [1] = experiment: LH synthesis by ovine pituitary cells in suspension culture; format: cell-based; conditions: cells incubated with treatment for 16 hours; LH synthesis during 24 hour culture after removal
Description: In addition, the conjugation procedure reduces the toxicity of the pokeweed antiviral protein by 99.5 in a cell-free translation system. […] The activity of this conjugate was also tested in a pituitary cell culture system. In this system, pituitary cells were incubated with the sterilization agent conjugated to [D-Lys^6, des-Gly^10]-GnRH-ethylamide for 16 hours. After incubation, the sterilization agents were removed from the incubation media by extensive washing and the cells were then cultured for an additional 24 hours. The increase in total LH, i.e., that present in the media plus that in the cells during the 24 hour period, represents the ability of the treated cells to synthesize LH. […]
The effect of these compounds on ovine pituitary cells in suspension culture was measured. […] After pretreatment, the cells were washed 6 times, counted, and small aliquots removed for testing. […] 3 ml of cold Gel-PBS was added to each tube, cells were centrifuged, and the media was measured for LH content. The four pretreatment groups were evaluated for their ability to synthesize and secrete LH immediately after treatment and after the 24 hour recovery period.

[2] = system: GnRH induced secretion of LH; experiment: GnRH induced secretion of LH in ovariectomized female rats; format: in vivo; conditions: single injection; ovariectomized female rat
Description: Applicants also tested these compounds using an in vivo model. The test system initially chosen was the ovariectomized female rat. […] During week 2, release of LH was reduced by 50% in the GnRH-A treated group (controls), but by >90% in the GnRH-A-T group. […] It might however be the basis for a temporary sterilization. Based upon this finding, a second experiment was conducted to examine the effect of 4 injections of a pokeweed antiviral sterilization conjugate at 3-day intervals on the ability of ovariectomized rats to release LH.
Applicants also tested the PAP-carbodiimide-[D-Lys^6, desGly^10]-GnRH-ethylamide conjugate in ovariectomized female rats.
FIG. 1B indicates the results of a challenge by one of applicants' compounds to ovariectomized rats. […] The open space above the bars indicates the amount of LH released in response to a GnRH challenge. The challenges were administered on the first day of treatment and again 4 weeks later.

ovine pituitary cells [3] = experiment: Total culture LH after exposure to GnRH and toxin conjugates with or without lysosomal agents; format: cell-based; conditions: 24 hour exposure, wash, further 24 hour culture in standard media
Description: Applicants then tested the more promising Barley-2IT-[D-Lys^6, desGly^10]-GnRH-ethylamide conjugate in similar assay systems. […] Ovine pituitary cells were again placed in culture with various agents and the total LH in the cells and media determined after a 24 hour exposure, wash, and further 24 hour culture in standard media.

gonadotropin-releasing hormone (QHWSYGLRPG; Gonadoliberin-1; UniProt P01148 24-33, looked up) [GnRH, native decapeptide hormone]
SYNTHESIS of LH (ovine pituitary cells [1]): 545.5 ng per 5 × 10^6 cells

pyroGlu-His-Trp-Ser-Tyr-D-Lys-Leu-Arg-Pro-ethylamide [[D-Lys^6, des-Gly^10]-GnRH-ethylamide]
reduction of release of LH, week 2 [2]: 50%
Total LH (ovine pituitary cells [3]): 1.62 Ng/10^5 cells in Culture
